Laboratory results taken from article PMC7943581, “Tumor-penetrating therapy for β5 integrin-rich pancreas cancer” (Nature Communications, 2021).

Tests used:
[1] = system: PDAC in KPC mice; assay: Long-term treatment of KPC mice, gemcitabine with or without iRGD; type: in vivo, mouse
Procedure: One hundred micrograms of FAM-labeled peptide dissolved in 100 μl of PBS was intravenously injected into tumor mice, and allowed to circulate for 15, 30, or 60 min. The mice were perfused through the heart under deep anesthesia using PBS containing 1% BSA, and tissues were harvested, fixed with 4% PFA overnight, washed three times with PBS, and then transferred to 30% sucrose prior to embedding in optimal cutting temperature compound (OCT). In some cases, the FAM signal was enhanced with an anti-fluorescein antibody (1:200) (Cat no. A-889, Invitrogen) followed by a secondary anti-rabbit Alexa 488 antibody (1:200) (Invitrogen). Other antibodies used for immunofluorescence were anti-FAP (1:100) (Cat. no. ABT-11, Millipore Sigma, Temecula, CA), Cy3-anti-αSMA (1:100) (Clone 1A4, Cat. no. C6198, Millipore Sigma), anti-ER-TR7 (1:100) (Cat. no. SC-73355, Santa Cruz Biotechnology, Dallas, TX), rabbit anti-mouse β5 integrin (1:200) (Cat. no. 15459, GeneTex, Irvine, CA), rabbit monoclonal anti-Ki67 (1:200) (Clone SP6, Cat. no. ab16667, Abcam), mouse monoclonal anti-αSMA (0.034 μg/ml) (Clone 1A4, Cat. no. ab7817, Abcam), and rat anti-mouse CD31(1:100) (Clone MEC 13.3, Cat. no. 550274, BD Biosciences) antibodies. The sections were also stained with 4′,6-diamidino-2-phenylindole (DAPI) (1:1000) (Invitrogen). The stained tissue sections were examined with a Zeiss confocal microscope (Zeiss, Dublin, CA). To quantify FAM-iRGD homing (green) and its colocalization with CAFs (red), confocal micrographs were converted to RGB color mode and analyzed with an ImageJ software for the intensity and areas positive for one or both colors. Six to eight random fields per tumor were chosen and repeated in three tumor mice for each time point. For intraductal spreading of FAM-iRGD, cancerous ducts with or without FAM-iRGD signal were manually counted per field of view in confocal micrographs. Six random fields were chosen for each of the three tumors at both time points.
Immunohistochemistry was performed as described previously. Briefly, paraffin-embedded sections were cleared, rehydrated, and subjected to steam heat-mediated antigen retrieval using low or high pH buffer (eBioscience). Endogenous peroxidase activity was blocked with BloxALL (Vector, Burlingame, CA). Blocking was performed with 10% donkey or goat serum plus 5% BSA. The sections were treated with a rabbit anti-αvβ5 polyclonal antibody (1:200) (Cat. no. bs-1356R, BIOSS, Woburn, MA) or a rabbit polyclonal anti-cleaved caspase 3 antibody (1:250) (Cat. no. 9579S, Cell Signaling) at 4 °C overnight and incubated with ImmPRESS (IHC-P, rabbit, MP-7401) secondary antibody reagent (Vector, Burlingame, CA). The sections were counter stained with hematoxylin and eosin (H&E) and viewed with a Nikon Eclipse E-600 bright field microscope.
KPC mice with PDAC of ~4–5 mm confirmed by palpation and ultrasound imaging were randomized into respective treatment cohorts: iRGD alone (100 μg/IV injection, n = 10); gemcitabine (TSZ Chem, Waltham, MA) (100 mg/kg/IP injection, n = 18); iRGD + gemcitabine (n = 16). The treatment was given every 4 days until the mice met the criteria for sacrifice defined by the IACUC. Survival curves were drawn and analyzed using GraphPad (Prism8) software. In another study, the KPC mice were randomized into gemcitabine (100 mg/kg/IP injection) + nab-paclitaxel composed of mouse albumin (30 mg/kg/IP injection) or iRGD (100 μg/IV injection) + gemcitabine + nab-paclitaxel. […]

[2] = system: NRP-1 expression in PC3 cells; assay: Cell surface NRP-1 expression in PC3 cells with TGF-β or LY2157299; type: cell-based, human; settings: Fig 4F
Procedure: (§1) Spheroids were generated by incubating 5 × 10^4 cells per well in 24-well low binding plates for 3 days. For co-culture studies, spheroids prepared with a mixture of 5 × 10^4 CAFs and 10^4 tumor cells per well were used. In some cases, spheroids were maintained in CM for 2 days in the presence or absence of 10 μM dimethyl sulfoxide (DMSO) or a specific TGF-β inhibitor LY2157299 (PeproTech, Princeton, NJ). The CM was prepared from the supernatant of 3-day-old cultures of CAFs or tumor cells, which was centrifuged at 2000×g for 40 min to remove cellular debris. Some spheroids were incubated in the presence of 30 ng/ml human TGF-β (eBioscience, San Diego, CA) for 48 h.
(§2) Cells were trypsinized into a single cell suspension before staining. The primary antibodies were mouse anti-human αvβ3 (1 μg/sample) (Clone LM609 Cat no. MAB1976, EMD Millipore, Billerica, MA), mouse anti-human αvβ5 (1 μg) (Clone P1F6, Cat no. MAB1961 EMD Millipore), rat anti-mouse αv (1 μg) (Clone RMV7, Cat no. 50-104-13, eBioscience), rabbit anti-human NRP-1 b1b2[20] (1 μg), and Alexa 647 or BV421-conjugated mouse anti-human/mouse αvβ5 (1:50) (clone ALULA Cat no. 565836 or 743669, BD Biosciences, San Jose, CA). The primary antibodies were detected with corresponding secondary antibodies conjugated with Alexa 488, 594, or 647 (1:250) (Invitrogen). The cells were analyzed with an LSR Fortessa System (BD Biosciences), and the data were analyzed with a FlowJo software. Cells were gated on single cells and then on live cells by excluding DAPI or PI positive cells. In tumor cell/CAF co-culture experiments, mCherry high cells were gated in order to define the mCherry-labeled CAFs. For iRGD-AgNP uptake quantification, specific uptake was defined by gating cells positive for either Alexa 647 or 488, which were attached to the AgNPs.
(§3) Spheroids were dissociated into a single cell suspension as described in the previous section. The cells were subjected to flow cytometry to analyze the protein expression of αvβ3 and αvβ5 integrins and NRP-1. The flow cytometry was performed as described in a previous section. Some cells were also subjected to qPCR to analyze mRNA expression of αv (ITGav) and ITGb5 integrin subunits, TGF-β, and ZEB1. Total RNA was extracted using Trizol Reagent (Invitrogen), and cDNA was generated using a SuperScript III First-strand Synthesis System (Invitrogen). qPCR was performed using SYBR green in an ABI 7900 HT (Applied Biosystems, Foster City, CA). The results were normalized against β-actin and cyclophilin A. The list of primers can be found in Supplementary Table 1.

[3] = system: αvβ5 integrin expression in PC3 cells; assay: Cell surface αvβ5 integrin expression in PC3 cells with TGF-β or LY2157299; type: cell-based, human; settings: for avb5 MFI: Fig 4E
Procedure: as §1, §2, §3

[4] = system: KPC mouse tumors; assay: Modified Miles assay, Evans Blue with iRGD co-injection; type: in vivo; settings: IV 100 μl 1% Evans blue then 100 μg iRGD or PBS, 40 min, OD 600 nm, Fig S14
Procedure: The experiments were performed as described earlier[20],[38]. In brief, for Miles assays, anesthetized mice were warmed to 37 °C for 10 min, followed by an IV bolus of 100 μl of 1% Evans blue dye and then 100 μg of iRGD. After 40 min, the mice under deep anesthesia were perfused through the heart with PBS containing 1% BSA and the organs were harvested for dye extraction using […]. OD 600 nm of the supernatant was measured. For dextran delivery, mice were intravenously injected with 0.3 mg of iRGD followed by 0.3 mg of 10 kDa Alexa 647-conjugated fixable dextran (Invitrogen). After 1 h of circulation, mice were perfused with PBS containing 1% BSA and the organs were harvested and processed for immunofluorescence.

[5] = system: mPCFAA0779 CAFs and LM-PmC cells; assay: Peptide entry in 2D co-cultures (confocal microscopy); type: cell-based, mouse; settings: 2D co-culture, 20 μM peptide, 4 h, 37 °C
Procedure: A mixture of tumor cells and CAFs at a 2:1 ratio was grown on collagen I-coated coverslips (BD Biosciences) overnight or until they became confluent. The cells were incubated with 20 μM of FAM-labeled peptides for 4 h at 37 °C. The cells were briefly rinsed with warm PBS, fixed in warm 4% paraformaldehyde, and stained with DAPI (1:1000). The cells were visualized with a Fluoview 500 confocal microscope (Olympus America, Center Valley, PA).

Nc1ccn([C@@H]2O[C@H](CO)[C@@H](O)C2(F)F)c(=O)n1 [Gem, gemcitabine]
liver metastases (median) ([1]; KPC mice, necropsy of random samples, not significant): 26
lung metastases (median) ([1]; KPC mice, necropsy of random samples, p = 0.03): 9
survival at 180 days ([1]; KPC mice, treatment every 4 days): 0%
median survival ([1]; KPC mice, treatment every 4 days, n = 16 combination, n = 18 gemcitabine): 71 days

Cc1cccc(-c2nn3c(c2-c2ccnc4ccc(C(N)=O)cc24)CCC3)n1 [LY2157299]
NRP1 MFI ([2]; PC3, CAFCM+LY, Exp1): 4550
NRP1 MFI ([2]; PC3, CAFCM+LY, Exp2): 2287
NRP1 MFI ([2]; PC3, CAFCM+LY, Exp3): 2840
NRP1 MFI ([2]; PC3, NM+TGFb+LY, Exp1): 11021
NRP1 MFI ([2]; PC3, NM+TGFb+LY, Exp2): 3760
NRP1 MFI ([2]; PC3, NM+TGFb+LY, Exp3): 6318
effect on CAF CM-induced αvβ5 expression in PC3 cells ([3]; 10 μM, 2 days in CM): completely blocked
avb5 MFI ([3]; PC3, CAFCM+LY, Exp1): 4907
avb5 MFI ([3]; PC3, CAFCM+LY, Exp2): 3245
avb5 MFI ([3]; PC3, CAFCM+LY, Exp3): 2633
avb5 MFI ([3]; PC3, CAFCM+LY, Exp4): 2959
avb5 MFI ([3]; PC3, NM+TGFb+LY, Exp1): 4584
avb5 MFI ([3]; PC3, NM+TGFb+LY, Exp2): 3278
avb5 MFI ([3]; PC3, NM+TGFb+LY, Exp3): 2186
avb5 MFI ([3]; PC3, NM+TGFb+LY, Exp4): 2450

Cc1cc(-c2ccc(/N=N/c3ccc4c(S(=O)(=O)O)cc(S(=O)(=O)O)c(N)c4c3O)c(C)c2)ccc1/N=N/c1ccc2c(S(=O)(=O)O)cc(S(=O)(=O)O)c(N)c2c1O [PBS + EB, Evans Blue]
Evans Blue in KPC mouse tumors normalized against wet tissue weight ([4]; Exp 1): 0.004 µg/mL/mg
Evans Blue in KPC mouse tumors normalized against wet tissue weight ([4]; Exp 2): 0.07 µg/mL/mg
Evans Blue in KPC mouse tumors normalized against wet tissue weight ([4]; Exp 3): -0.074 µg/mL/mg

CRGDK/RGPD/EC [iRGD, iRGD tumor-penetrating peptide (CRGDK/RGPD/EC)]
therapeutic benefit vs historical survival of untreated KPC mice ([1]; iRGD alone 100 μg IV every 4 days, n = 10, Fig S15): did not provide any therapeutic benefit

CRGEKGPDC [FAM-iRGE, variant peptide (…) with the RGD motif changed to RGE, FAM-labeled]
entry of FAM-labeled peptide into cells [5]: minimal affinity to the cells

FAM-CRGDC
entry of FAM-labeled peptide into cells [5]: to a much lesser extent than FAM-iRGD

TGF-β
NRP1 MFI ([2]; PC3, NM+TGFb+DMSO, Exp1): 12904
NRP1 MFI ([2]; PC3, NM+TGFb+DMSO, Exp2): 3924
NRP1 MFI ([2]; PC3, NM+TGFb+DMSO, Exp3): 4995
avb5 MFI ([3]; PC3, NM+TGFb+DMSO, Exp1): 7502
avb5 MFI ([3]; PC3, NM+TGFb+DMSO, Exp2): 9515
avb5 MFI ([3]; PC3, NM+TGFb+DMSO, Exp3): 6238
avb5 MFI ([3]; PC3, NM+TGFb+DMSO, Exp4): 5783
effect of exogenous TGF-β on αvβ5 expression ([3]; cultured PC3 cells, 30 ng/ml, 48 h): reproduced the CAF CM-induced increase in αvβ5 expression
